Patent US20130204017A1, “GLYCERYL ASCORBIC ACID ACYLATED DERIVATIVE OR ITS SALT, PRODUCTION METHOD THEREOF, AND COSMETICS” (SEIWA KASEI COMPANY, LIMITED, priority 2012, published 2013)

Columns and labels:
[1] = tested on: Normal human dermal fibroblasts; assay: Collagen production evaluation test (Sircol collagen assay); format: cell-based; conditions: sample 100 μM, cultured 48 hours; for activity at 100 µM: Homo sapiens, Fibroblast, read-out: Collagen production promoting effect (collagen production amount, control group is 100%)
Protocol: The collagen production promoting effects of the glyceryl ascorbic acid acylated derivatives of the present invention were evaluated, according to the following procedure. As comparison, arbutin, ascorbic acid, sodium ascorbate, magnesium ascorbyl phosphate, glucosyl ascorbic acid, 3-O-glyceryl ascorbic acid and 2-O-glyceryl ascorbic acid were used like in Test Example 1.
Normal human dermal fibroblasts were regulated with a 10% (v/v) fetal bovine serum (manufactured by Invitrogen)-containing D-MEM so as to give a cell density of 2.5×10^4 cells/well, then, pre-incubation for 24 hours was performed on a 96-well plate. After the medium was removed, a sample regulated with a 5% (v/v) fetal bovine serum-containing D-MEM to a concentration of 100 μM was added to each well, then, cultured for 48 hours at 37° C. and 5% CO2. After completion of culturing, the amount of free collagen was measured using Sircol collagen assay kit (manufactured by Biocolor).
The collagen production amount in applying a sample at a concentration of 100 μM is obtained as % value when the control group is 100%, and the results are shown in Table 4 based on the following standard.

[2] = tested on: B16 melanoma 4A5 cell; assay: Melanin production suppressing evaluation test (theophylline-induced melanine production); format: cell-based, mouse; conditions: sample at a concentration of 100 μl or less; 0.2 mM theophylline; culturing 3 days
Protocol: As a test for a whitening effect, evaluation of the action of B16 melanoma 4A5 cell on theophylline-induced melanine production was carried out on a glyceryl ascorbic acid acylated derivative of the present invention, according to the following procedure. The same evaluations were carried out also on arbutin, ascorbic acid, sodium ascorbate, magnesium ascorbyl phosphate, glucosyl ascorbic acid, and 3-O-glyceryl ascorbic acid and 2-O-glyceryl ascorbic acid obtained in the Synthesis Examples mentioned above, as comparison.
(1) B16 mouse melanoma 4A5 strain was sowed onto a 48-well plate at a cell density of 2.0×10^4 cells/well. (2) Culturing was performed for 24 hours with Dulbecco's Modified Eagle's medium (manufactured by SIGMA. Hereinafter, abbreviated as D-MEM) containing 10% fetal bovine serum (manufactured by Roshe Diagnostics). Then, it was changed to 0.2 mM theophylline and a 10% fetal bovine serum-containing D-MEM which contains a sample of given concentration. (3) After culturing for 3 days in the co-existence of a sample, the medium was removed using an aspirator. Then, after distilled water was added, cells were broken by an ultrasonic wave. (4) Thereafter, the amount of protein was determined using BCA protein assay kit (manufactured by PIERCE), and the produced amount of melanine was measured by an alkali solubilizing method described later. To the cell-destructed solution was added sodium hydroxide so as to give a final concentration of 2 mol/L and the mixture was dissolved by heating (60° C., 15 minutes), then, the absorbance at 450 nm was measured using a micro plate reader. The melanine amount was calculated from a calibration curve made using synthetic melanine (SIGMA) as a standard. The melanine amount per unit protein was calculated by dividing the melanine amount by the protein amount. (5) The melanine production suppressing rate was calculated according to the following formula.
Melanine production suppressing rate(%)=[1−(A−B)/(C−B)]×100
[wherein, A represents the melanine amount per unit protein (g/g) in adding a sample, B represents the melanine amount per unit protein (g/g) in the normal group, and C represents the melanine amount per unit protein (g/g) in the control group.]
The normal group means the case where neither theophylline nor sample was added.(that is; theophylline(−) and sample(−))
The control group means the case where neither sample was not added but theophylline was added.(that is; theophylline (+) and sample(−))
In the following Tables, the melanine production suppressing rate in applying a sample at a concentration of […] or less is expressed as described below.

[3] = Stability test: odor and color change of 2% aqueous solution stored at 50° C.; format: physicochemical; conditions: pH7, ten panelists
Protocol: Using 2-O-glyceryl-6-O-octanoyl ascorbic acid obtained in Example 2 and 2-O-glyceryl-6-O-octadecanoyl ascorbic acid obtained in Example 9, an evaluation was made on the stability of odor and color change when stored at 50° C. for 4 weeks, according to the following procedure. For comparison, magnesium ascorbyl phosphate, ascorbic acid and 3-O-glyceryl ascorbic acid were used.
Aqueous solutions (2%) of various test samples were adjusted to pH7 with a dilute sodium hydroxide aqueous solution or a dilute hydrochloric acid aqueous solution, and charged into 50 mL screw tubes. The tubes were sealed and stored at 50° C. for 4 weeks. The odor and degree of color change immediately after preparation, after storage for two weeks and after storage for four weeks were evaluated by ten panelists based on the following methods and according to the following criterion.
3: almost no change as compared with that immediately after preparation
2: color change is observed as compared with that immediately after preparation
1: intense color change is observed as compared with that immediately after preparation
Based on the evaluation results, classification was conducted as shown below.
◯: total point of 10 panelists is 25 or more
Δ: total point of 10 panelists is 16 to 24
x: total point of 10 panelists is 15 or less

[4] = In vivo moisturizing test (stratum corneum water content, forearm); conditions: 5 g in 100 mL water, pH 7, 0.3 mL on forearm, 10 subjects
Protocol: An in vitro moisturizing test and an in vivo moisturizing test of the glyceryl ascorbic acid acylated derivatives of Examples 1 to 6 were carried out according to the following manner. For comparison, sodium ascorbate, magnesium ascorbyl phosphate, glucosyl ascorbic acid, 3-O-glyceryl ascorbic acid, 2-O-glyceryl ascorbic acid and 3-O-cetyl ascorbic acid were used.
Each test sample (5 g) was dissolved in 100 mL of water, and pH thereof was adjusted to 7 with a dilute sodium hydroxide aqueous solution or a dilute hydrochloric acid aqueous solution to prepare a sample solution. A paper filter of 1 cm×1 cm was placed on a forearm portion and 0.3 mL of the prepared sample solution was applied on this, and covered and fixed by a polyamide film. Then, 3 hours and 8 hours after, the stratum corneum water content at the sample-applied portion was measured using CORNEOMETER CM825 (manufactured by Integral Corporation). The test was carried out with 10 subjects, and evaluated according to the following criterion (evaluation standard).
3: Stratum corneum water content increased by 15% or more, based on the water content before sample application
2: Stratum corneum water content increased by 0 to less than 15%, based on the water content before sample application
1: There was no change or there was a reduction in stratum corneum water content, before and after sample application.
Based on the evaluation results, classification was set as described below.
◯: Total points of 10 subjects is 25 or more
Δ: Total points of 10 subjects is 16 to 24
x: Total points of 10 subjects is 15 or less

[5] = storage period 0 (immediately after preparation)

Row | Compound | activity at 100 µM [1] [%] | Whitening effect (melanine production suppressing rate) [2] | other results
1 | OC[C@H]1O[C@@H](Oc2ccc(O)cc2)[C@H](O)[C@@H](O)[C@@H]1O [Arbutin, reference compound] | < 100 | ⊚ (50% or more) | 
2 | O=C1O[C@H]([C@@H](O)CO)C(O)=C1O [Ascorbic acid] | 100 to 200 | Δ (Less than 30%) | Odor ([3]; storage 2 weeks at 50° C.): Δ (total point of 10 panelists is 16 to 24); Color change [3, 5]: ◯ (total point of 10 panelists is 25 or more); Odor [3, 5]: ◯ (total point of 10 panelists is 25 or more)
3 | CCCC(=O)OC[C@H](O)[C@H]1OC(=O)C(OCC(O)CO)=C1O (some centres unmarked) [Example 1, 2-O-glyceryl-6-O-butanoyl ascorbic acid] | 100 to 200 | ◯ (30 to 49%) | in vivo moisturizing (stratum corneum water content) after 3 hours ([4]; 3 hours): ◯ (Total points of 10 subjects is 25 or more); in vivo moisturizing (stratum corneum water content) after 8 hours ([4]; 8 hours): ◯ (Total points of 10 subjects is 25 or more)
4 | CCCCCCCCCCCCCC(=O)OC[C@H](O)[C@H]1OC(=O)C(OCC(O)CO)=C1O (some centres unmarked) [Example 7, 2-O-glyceryl-6-O-tetradecanoyl ascorbic acid] |  | ⊚ (50% or more) | 
5 | CCCCCCCCCCCCCCCCCC(=O)OC[C@H](O)[C@H]1OC(=O)C(OCC(O)CO)=C1O (some centres unmarked) [Example 9, 2-O-glyceryl-6-O-octadecanoyl ascorbic acid] |  | ⊚ (50% or more) | Color change ([3]; storage 2 weeks at 50° C.): ◯ (total point of 10 panelists is 25 or more); Odor ([3]; storage 2 weeks at 50° C.): ◯ (total point of 10 panelists is 25 or more); Color change ([3]; storage 4 weeks at 50° C.): ◯ (total point of 10 panelists is 25 or more); Odor ([3]; storage 4 weeks at 50° C.): ◯ (total point of 10 panelists is 25 or more); Color change [3, 5]: ◯ (total point of 10 panelists is 25 or more); Odor [3, 5]: ◯ (total point of 10 panelists is 25 or more)
6 | CCCCCCCC/C=C\CCCCCCCC(=O)OC[C@H](O)[C@H]1OC(=O)C(OCC(O)CO)=C1O (some centres unmarked) [Example 10, 2-O-glyceryl-6-O-oleoyl ascorbic acid] |  | ⊚ (50% or more) | 
7 | CCCC(=O)OCC(O)COC1=C(O)[C@@H]([C@@H](O)COC(=O)CCC)OC1=O (some centres unmarked) [Example 11, 2-O-(3′-O-butanoylglyceryl)-6-O-butanoyl ascorbic acid] |  | ◯ (30 to 49%) | 
8 | CCCC(=O)OCC(O)COC1=C(OC(=O)CCC)[C@@H]([C@@H](O)COC(=O)CCC)OC1=O (some centres unmarked) [Example 13, 2-O-(3′-O-butanoylglyceryl)-3,6-di-O-butanoyl ascorbic acid] | 100 to 200 | ⊚ (50% or more) | 
9 | CCCCCCCC(=O)OCC(O)COC1=C(O)[C@@H]([C@@H](O)COC(=O)CCC)OC1=O (some centres unmarked) [Example 15, 2-O-(3′-O-octanoylglyceryl)-6-O-butanoyl ascorbic acid] | 100 to 200 |  | 
10 | CCCCCCCCCCCCCCCC(=O)OCC(O)COC1=C(O)[C@@H]([C@@H](O)COC(=O)CCC)OC1=O (some centres unmarked) [Example 16, 2-O-(3′-O-hexadecanoylglyceryl)-6-O-butanoyl ascorbic acid] |  | ⊚ (50% or more) | 
11 | CCCCCCCCCCCC(=O)OC[C@H](O)[C@H]1OC(=O)C(OCC(O)COC(=O)CCC)=C1O (some centres unmarked) [Example 17, 2-O-(3′-O-butanoylglyceryl)-6-O-dodecanoyl ascorbic acid] | 100 to 200 |  | 
12 | CCCCCCCC(=O)OC1=C(OCC(O)CO)C(=O)O[C@@H]1[C@@H](O)CO (some centres unmarked) [Example 18, 2-O-glyceryl-3-O-octanoyl ascorbic acid] | 100 to 200 |  | 
13 | CCCCCCCCCCCC(=O)OC1=C(OCC(O)CO)C(=O)OC1C(O)COC(=O)CCCCCCC (centres unmarked) [Example 19, 2-O-glyceryl-3-O-dodecanoyl-6-O-octanoy ascorbic acid] |  | ⊚ (50% or more) | 
14 | CCCC(=O)OC[C@H](O)[C@H]1OC(=O)C(O)=C1OCC(O)CO (some centres unmarked) [Example 20, 3-O-glyceryl-6-O-butanoyl ascorbic acid] | 100 to 200 |  | 
15 | CCCCCCCC(=O)OC[C@H](O)[C@H]1OC(=O)C(O)=C1OCC(O)CO (some centres unmarked) [Example 21, 3-O-glyceryl-6-O-octanoyl ascorbic acid] |  | ⊚ (50% or more) | 
16 | CCCCCCCCCCCCCCCC(=O)OC[C@H](O)[C@H]1OC(=O)C(O)=C1OCC(O)CO (some centres unmarked) [Example 22, 3-O-glyceryl-6-O-hexadecanoyl ascorbic acid] | 100 to 200 |  | 
17 | CCCCCCCCCCCC(=O)OCC(O)COC1=C(O)C(=O)O[C@@H]1[C@@H](O)COC(=O)CCC (some centres unmarked) [Example 23, 3-O-(3′-O-dodecanoylglyceryl)-6-O-butanoyl ascorbic acid] | 100 to 200 |  | 
18 | O=C1O[C@H]([C@@H](O)CO)C([O-])=C1OP(=O)([O-])[O-].O=C1O[C@H]([C@@H](O)CO)C([O-])=C1OP(=O)([O-])[O-].[Mg+2].[Mg+2].[Mg+2] [Magnesium ascorbyl phosphate] |  | Δ (Less than 30%) | Collagen production promoting effect (collagen production amount, control group is 100%) [1]: + (100 to 200%); Color change ([3]; storage 2 weeks at 50° C.): Δ (total point of 10 panelists is 16 to 24); Odor ([3]; storage 2 weeks at 50° C.): ◯ (total point of 10 panelists is 25 or more); Odor ([3]; storage 4 weeks at 50° C.): ◯ (total point of 10 panelists is 25 or more); Color change [3, 5]: ◯ (total point of 10 panelists is 25 or more); Odor [3, 5]: ◯ (total point of 10 panelists is 25 or more)
19 | O=C1O[C@H]([C@@H](O)CO)C([O-])=C1O.[Na+] [Sodium ascorbate, reference compound] | 100 to 200 | Δ (Less than 30%) | 
